Results reported in patent US20100316746A1, “Pesticidal Compound Mixtures” (Bayer CropScience AG, priority 2007, published 2010).

How the values were obtained:
Phaedon cochleariae = experiment: Phaedon cochleariae-Test (larvae, sprayed cabbage leaves); assay type: in vivo; conditions: 144 h, after 6 d, spray on cabbage leaves
Description: (§1) Solvent: 7 parts by weight of dimethylformamide Emulsifier: 2 parts by weight of alkylaryl polyglycolether
(§2) To produce a suitable preparation of active compound, 1 part by weight of active compound is mixed with the stated amount of solvent and emulsifier, and the concentrate is diluted with emulsifier-containing water to the desired concentration.
Cabbage leaves (Brassica oleracea) are treated by being sprayed with the preparation of the active compound in the desired concentration and are infested with larvae of the mustard beetle (Phaedon cochleariae) as long as the leaves are still moist.
After the specified period of time, the mortality in % is determined. 100% means that all the beetle larvae have been killed; 0% means that none of the beetle larvae have been killed.

Myzus persicae = experiment: Myzus persicae-Test (sprayed cabbage leaves); assay type: in vivo; conditions: 144 h, after 6 d, spray on cabbage leaves
Description: as §1, §2
Cabbage leaves (Brassica oleracea) which are heavily infested by the green peach aphid (Myzus persicae) are treated by being sprayed with the preparation of the active compound at the desired concentration.
After the specified period of time, the mortality in % is determined. 100% means that all the aphids have been killed; 0% means that none of the aphids have been killed.

SMILES	mortality at 200 ppm (Phaedon cochleariae; 200 ppm)	mortality at 200 ppm (Myzus persicae)	mortality at 4 ppm (Phaedon cochleariae; 4 ppm)	mortality at 0.8 ppm (Myzus persicae; 0.8 ppm)
CC(C)C1CCC(Cc2ccc(Cl)cc2)C1(O)Cn1cncn1 (centres unmarked) [Ipconazole, ipconazole]	5%	10%	–	–
CN/C(=N\[N+](=O)[O-])NCc1cnc(Cl)s1 [Clothianidin, clothianidin]	–	–	55%	65%
COCC(=O)N(c1c(C)cccc1C)C(C)C(=O)OC (centres unmarked) [Metalaxyl, metalaxyl]	–	0%	–	–
